According to patent US20170014477A1, “FREE RAPTOR REDUCES AGING- AND OBESITY-INDUCED FATTY LIVER” (The Trustees of Columbia University in the City of New York, priority 2015, published 2017):
Blank lines part the entries; values can stand above or below the molecule they belong to.

Key:
[1] = test system: PHLPP2; assay: PHLPP2 phosphorylation (Phos-tag mobility shift; IP and phospho-PKA substrate immunoblot) in hepatocytes; type: cell-based, mouse
From the text: To investigate the effect of PKA on PHLPP2 phosphorylation in primary hepatocytes, either WT or S1119/1210A mutant of PHLPP2 was immunoprecipitated from cell extracts treated with glucagon or forskolin, and then subjected to immunoblot analysis with an antibody specific for phosphorylated PKA substrate proteins.

[2] = test system: PHLPP2; assay: Western blot of PHLPP2 levels in primary hepatocytes / Hepa1c1c7 cells; type: cell-based, mouse; settings: short- or long-term treatment, Rapamycin (20 nM), Torin1 (250 nM)
From the text: The GFP, Raptor and PHLPP1/2 adenoviruses have been described (Miyamoto et al., 2010; Pajvani et al., 2013). The HA-Flag-PHLPP2 adenovirus was constructed by inserting a Flag sequence into HA-PHLPP2 vector (Addgene #22403, courtesy of Alexandra Newton) and adenoviruses encoding HA-Flag-PHLPP2 generated by Welgen, Inc. (Worcester, Mass.). Mouse shPhlpp1 or 2 target sequences were selected among three candidate sequences, respectively and adenoviruses encoding shPhlpp1 or 2 generated by Welgen, Inc. For in vivo studies, we injected […] or 2.5×10^8 purified viral particles per g body weight; we performed metabolic analysis on days 3-5 and euthanized the mice at day 8 or 10 after injection. Infection with adenovirus in primary hepatocytes or Hepa1c1c7 cells was performed at 2.5, 5, or 10 multiplicity of infection (MOI).
We isolated and cultured primary mouse hepatocytes as previously described (Kim et al., 2012). For inhibitor experiments, we treated hepatocytes with 20 nM rapamycin (Cell Signaling), 250 nM Torin1, or vehicle for either 1 h or 24 h.
Tissues and cells were lysed in 0.3% CHAPS lysis buffer (Kim et al., 2002) unless otherwise stated, and whole cell lysates obtained by centrifugation. […]

[3] = test system: free Raptor; assay: DSS crosslinking assay for free Raptor in hepatocytes and hepatoma cells; type: cell-based, mouse
Experimental: Liver was lysed in 1% Triton X-100 lysis buffer (Kim et al., 2002) with or without 2.5 mg/ml DSP or DSS, and incubated for 2 h on ice. Crosslinking was quenched with 1 M Tris-HCl (pH 7.5) for 30 min on ice. For in vitro crosslinking assays, DSP or DSS were added to a final concentration of 1 mg/ml culture medium, and quenched by Tris-HCl as above. Equal protein (BCA assay, Thermo) was then subjected to Western blot, with or without IP.

[4] = target: T1, PH domain leucine-rich repeat protein phosphatase 2 (PHLPP2), endogenous (mouse, UniProt Q8BXA7 1-1320); assay: anti-PHLPP2 IP from primary hepatocytes and Hepa1c1c7 cells with or without MG-132, Western blot (FIG. 19i, FIG. 28j)
T1 construct: Endogenous protein, immunoprecipitated with anti-PHLPP2 or co-precipitated with anti-Akt; also called endogenous PHLPP2
T1 sequence (looked up): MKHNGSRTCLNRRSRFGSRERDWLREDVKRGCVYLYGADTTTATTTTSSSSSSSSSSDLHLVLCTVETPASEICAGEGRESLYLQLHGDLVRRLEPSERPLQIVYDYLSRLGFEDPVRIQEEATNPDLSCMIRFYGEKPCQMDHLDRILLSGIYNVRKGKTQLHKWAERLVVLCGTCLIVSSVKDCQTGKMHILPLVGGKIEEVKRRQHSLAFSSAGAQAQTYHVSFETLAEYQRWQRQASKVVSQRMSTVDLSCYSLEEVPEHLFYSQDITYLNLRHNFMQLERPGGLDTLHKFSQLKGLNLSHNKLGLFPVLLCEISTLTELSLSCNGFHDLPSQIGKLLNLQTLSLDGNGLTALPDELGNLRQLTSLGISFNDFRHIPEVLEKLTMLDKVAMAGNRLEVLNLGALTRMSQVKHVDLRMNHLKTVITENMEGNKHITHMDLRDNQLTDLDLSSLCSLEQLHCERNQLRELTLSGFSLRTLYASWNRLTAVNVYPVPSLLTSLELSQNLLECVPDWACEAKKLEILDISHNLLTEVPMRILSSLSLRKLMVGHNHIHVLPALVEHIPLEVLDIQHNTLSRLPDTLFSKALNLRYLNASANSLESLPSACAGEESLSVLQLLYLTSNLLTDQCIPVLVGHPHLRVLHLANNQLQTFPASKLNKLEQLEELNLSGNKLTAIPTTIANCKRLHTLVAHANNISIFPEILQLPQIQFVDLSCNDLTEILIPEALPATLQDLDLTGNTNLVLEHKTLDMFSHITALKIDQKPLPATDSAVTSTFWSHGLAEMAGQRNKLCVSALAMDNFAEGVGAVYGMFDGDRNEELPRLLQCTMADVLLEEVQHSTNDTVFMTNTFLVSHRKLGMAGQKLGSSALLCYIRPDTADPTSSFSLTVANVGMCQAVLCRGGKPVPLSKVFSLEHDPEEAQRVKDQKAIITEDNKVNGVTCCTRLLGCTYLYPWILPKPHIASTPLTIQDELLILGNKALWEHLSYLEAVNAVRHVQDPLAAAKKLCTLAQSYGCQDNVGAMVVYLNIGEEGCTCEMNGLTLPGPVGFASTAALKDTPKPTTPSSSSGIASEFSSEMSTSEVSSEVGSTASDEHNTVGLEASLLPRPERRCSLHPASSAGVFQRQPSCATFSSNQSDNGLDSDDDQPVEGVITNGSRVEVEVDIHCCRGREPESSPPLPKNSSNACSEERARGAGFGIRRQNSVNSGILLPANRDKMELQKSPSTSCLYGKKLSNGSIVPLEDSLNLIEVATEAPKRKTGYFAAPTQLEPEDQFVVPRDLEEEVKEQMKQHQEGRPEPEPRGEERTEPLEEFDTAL

Molecule: O=S(=O)(NCCNC/C=C/c1ccc(Br)cc1)c1cccc2cnccc12 [H89]
- forskolin-mediated PHLPP2 phosphorylation ([1]; pretreatment with PKA inhibitor): reduced

Molecule: CCC(=O)N1CCN(c2ccc(-n3c(=O)ccc4cnc5ccc(-c6cnc7ccccc7c6)cc5c43)cc2C(F)(F)F)CC1 [Torin1]
- decrease of basal or Raptor-increased PHLPP2 levels [2]: neither

Molecule: glucagon
- PKA-mediated phosphorylation of WT PHLPP2 ([1]; primary hepatocytes, IP, phosphorylated PKA substrate antibody, not S1119A/S1210A mutant): robustly increased

Molecule: insulin
- free Raptor levels ([3]; brief exposure): ineffectual
- free Raptor levels ([3]; prolonged high-dose treatment to induce insulin resistance, primary hepatocytes or Hepa1c1c7 cells): reduced

- binding result [4]: binds
B1: β-TrCP (beta-transducin repeat-containing protein) (other, mouse, UniProt Q3ULA2 1-605, looked up)
chain: MDPAEAVLQEKALKFMCSMPRSLWLGCSSLADSMPSLRCLYNPGTGALTAFQNSSEREDCNNGEPPRKIIPEKNSLRQTYNSCARLCINQETVCLTSTAMKTENCVAKAKLANGTSSMIVPKQRKLSASYEKEKELCVKYFEQWSESDQVEFVEHLISQMCHYQHGHINSYLKPMLQRDFITALPARGLDHIAENILSYLDAKSLCAAELVCKEWYRVTSDGMLWKKLIERMVRTDSLWRGLAERRGWGQYLFKNKPPDENAPPNSFYRALYPKIIQDIETIESNWRCGRHSLQRIHCRSETSKGVYCLQYDDQKIVSGLRDNTIKIWDKSTLECKRILTGHTGSVLCLQYDERVIITGSSDSTVRVWDVNAGEMLNTLIHHCEAVLHLRFNNGMMVTCSKDRSIAVWDMASPTDITLRRVLVGHRAAVNVVDFDDKYIVSASGDRTIKVWNTSTCEFVRTLNGHKRGIACLQYRDRLVVSGSSDNTIRLWDIECGACLRVLEGHEELVRCIRFDNKRIVSGAYDGKIKVWDLMAALDPRAPAGTLCLRTLVEHSGRVFRLQFDEFQIVSSSHDDTILIWDFLNDPAAHAEPPRSPSRTYTYISR
notes: E3 ligase substrate recognition subunit of the SCF complex; endogenous protein in mouse cells
